Measurements from US11717536B2, “Treatment for periodontitis” (THE UNIVERSITY OF MELBOURNE, priority 2017, dated 2023).
Values joined by “and” are separate entries in the source; they are usually repeats but may differ in a detail not shown here. Identical values can stand only once. Marks after values point to notes of the source that are not given here.

Key:
Leptotrichia wadei = assay: Clinical trial: plaque microbial analysis, Leptotrichia wadei; type: in vivo; details: 18.8 mg CPP-ACP sugar-free gum, 20 min six times per day, 14 days, vs no gum chewing; supragingival plaque
From the text: Following the completion of the examination and supragingival plaque collection, participants received a supragingival scaling, clean and prophylaxis of all their teeth. At the completion of the last examination for leg 3, each participant received a professional fluoride treatment.
Participants had all supragingival plaque collected from the buccal surfaces of their maxillary molars (teeth 17, 16, 26 & 27) with a sterile scaling instrument. The plaque samples from each tooth were placed in separate sterile tubes, to give four samples per participant.
Genomic DNA was extracted from the plaque using a combination of mechanical disruption of the cells via a Precellys homogeniser and the chemical extraction and purification of the genomic DNA via the PowerLyzer PowerSoil DNA Isolation Kit (MoBio). Quantitation of the extracted DNA was achieved using a Qubit dsDNA High Sensitivity Assay kit (ThermoFisher), before 5 ng DNA was used as template in a PCR reaction that amplified the V4 variable region of the 16S ribosomal RNA gene and individually barcoded the PCR product from each sample. The barcoded DNA was then sequenced using an Ion Torrent Personal Genome machine and Torrent Suite™ Software (ThermoFisher).
Analysis of the resulting sequence of the 16S ribosomal RNA gene enabled identification of the bacterial population present in each sample, down to the species level. […]

[1] = tested on: enamel substratum of the polymicrobial biofilm caries model; assay: Enamel subsurface demineralization in the polymicrobial biofilm caries model (transverse microradiography); design: species or system human; details: for integrated mineral loss ΔZd / lesion depth LD: twice daily 10 min pulses, mean ± SD
Method: To model supragingival plaque six representative oral bacterial species, Streptococcus sanguinis (NCTC 7863), Streptococcus mutans Ingbritt, Actinomyces naeslundii (NCTC 10301), Veillonella parvula (ATCC 17745), Lactobacillus casei (NCDO 161) and Fusobacterium nucleatum (ATCC 10953) (Table 5) were cultured as a polymicrobial biofilm on a human enamel substratum in a constant-depth film fermenter (CDFF; Cardiff University, UK). The CDFF was housed in a 37° C. incubator under anaerobic conditions which were maintained by a constant flow of 5% CO2 in N2 at 1 L/h. The CDFF contained 15 removable polytetrafluoroethylene (PTFE) pans on a circular platform that was rotated at a constant speed of three rpm. The biofilms were grown on three enamel blocks (see below) in each PTFE pan using an artificial saliva medium (ASM, 2.5 g/L mucin type II (porcine, gastric, Sigma), 2.0 g/L bacteriological peptone (Oxoid), 2.0 g/L tryptone (Oxoid), 1.0 g/L yeast extract (Oxoid), 0.35 g/L NaCl, 0.2 g/L KCl, 0.2 mg/L vitamin K, 1 mg/L haemin and 0.1 g/L cysteine hydrochloride) at a constant flow rate of 30 mL/h. Prior to inoculation, the CDFF pan surfaces were conditioned for 24 h with ASM at a flow rate of 10 mL/h (McBain et al (2003) J Appl Microbiol. 94(4):655-66). In order to mimic in vivo bacterial growth conditions in the oral cavity with dietary sugar intake and to provide a high cariogenic challenge, a 1% (w/v) sucrose solution in ASM was pumped into the CDFF four times a day at four hourly intervals with a flow rate of 30 mL/h for 10 min.
Three treatments were applied to the polymicrobial biofilms: 290 ppm fluoride with 220 ppm fluoride as SnF2 and 70 ppm fluoride as NaF (referred to as SnF2), 2% CPP-ACP and 2% CPP-ACP-SnF2. These treatments were compared with the control in which the test solution was replaced with ASM. Each treatment was applied using two 10 min pulses of the test solution in ASM with a flow rate of 30 mL/h. The first pulse started 30 min prior to the first sucrose pulse of the morning and the second started 3 h 30 min after the final sucrose pulse of the day.
On day 6, 12 and 19 after inoculation four pans were removed aseptically from the CDFF and replaced with blank sterile pans. Enamel blocks from the pans were removed for bacterial enumeration and transverse microradiography.
Three hundred and sixty extracted human third molars were obtained under University of Melbourne ethics approval (HREC #1237616) and sterilized by exposure to 4.1 kGy of gamma radiation. Enamel blocks were cut from the teeth with approximately 6×3×3 mm dimensions using a water-cooled diamond blade saw (Minitom, Struers) and polished using a RotoPol/RotoForce lapping instrument with 1200, 2400, 4000 grit lapping papers (Struers) and 3 and 1 μm diamond polishing pastes (Struers). The blocks were positioned in custom made CDFF pans at a depth of 100 μm and sealed in place with yellow sticky wax (Kemdent) and sterilized by exposure to 4.1 kGy of gamma radiation.
Transverse microradiography was carried out essentially as described previously [Shen et al 2011]. […] The lesion depth (μm) was determined as the distance to the point at which the mineral content reaches 95% of the sound enamel value. The integrated mineral loss (IML), represented as ΔZd, was calculated by trapezoidal integration as the area between the sound-enamel densitometric profile and that of the demineralized enamel densitometric profile in vol % min·μm.

Q: For “Casein phosphopeptide-amorphous calcium phosphate [CPP-ACP]”, which “% decrease in relative abundance, Leptotrichia wadei” value (Leptotrichia wadei) is on record?
A: 91% (p < 0.001)

Q: What about the “integrated mineral loss ΔZd” value ([1]; Day 6) of the same substance?
A: 572.9 ± 97.80 vol % min · μm

Q: And the “lesion depth LD” value ([1]; Day 6)?
A: 15.0 ± 2.1^a μm

Q: What about the “integrated mineral loss ΔZd” value ([1]; Day 12) of the same substance?
A: 1075.3 ± 148.0^ad vol % min · μm

Q: And the “lesion depth LD” value ([1]; Day 12)?
A: 26.3 ± 4.4^ade μm

Q: What about the “integrated mineral loss ΔZd” value ([1]; Day 19) of the same substance?
A: 2105.4 ± 346.2^bd vol % min · μm

Q: What about the “lesion depth LD” value ([1]; Day 19) of the same substance?
A: 52.3 ± 3.2^ad μm

Q: What about the rate of demineralization ([1]; between day 6 and day 19) of the same substance?
A: 112.1 vol % min·μm/day

Q: And the “reduction in rate of demineralization relative to control” value ([1]; between day 6 and day 19, twice daily exposure)?
A: 50.2% and 50%
